Consider 17 molecules from patent US4415574A, “Soluble N2 substituted derivatives of 2,4-diamino 5-benzyl pyrimidine, process for their preparation and medicaments containing them” (S. A. Panmedica, priority 1981, dated 1983).

Structures are written as SMILES.

What all share (type): cell-based
Test [1] deals with COLI. The test can be described thus: Inhibiting minimum concentration (I.M.C.), activity relative to trimethoprime, MULLER HINTON COLI MEDIUM 4. Conditions: for % activity with respect to the base: ratio of I.M.C. to trimethoprime; for % activity to the base corrected by molecular weight: ratio to trimethoprime. On the procedure: (§1) The antibacterial activity of the derivatives according to the invention were tested in vitro by determining the inhibiting minimum concentrations (I.M.C.) on different germs.

Test [2] has as its system COLI. The test can be described thus: Inhibiting minimum concentration (I.M.C.), activity relative to trimethoprime, OXOIDE COLI MEDIUM 4. The note with it: for % activity with respect to the base: ratio of I.M.C. to trimethoprime; for % activity with respect to the base corrected by molecular weight: ratio to trimethoprime. On the procedure:
as §1

Another test deals with BACIL PUMILUS. The test can be described thus: Inhibiting minimum concentration (I.M.C.), activity relative to trimethoprime, MULLER HINTON BACIL PUMILUS MEDIUM. The note with it: for % activity with respect to the base: ratio of I.M.C. to trimethoprime; for % activity with respect to the base corrected by molecular weight: ratio to trimethoprime. The method, then: as §1

On to `COc1cc(Cc2cnc(NC(c3ccccc3O)S(=O)(=O)O)nc2N)cc(OC)c1OC` (centres unmarked) [Example 25c, N2 (2-HYDROXY) PHENYL METHANE SULFONIC ACID OF 5-(3,4,5-TRIMETHOXY BENZYL) 2,4-DIAMINO PYRIMIDINE], for which, in the test on COLI [1], the “% activity with respect to the base” value stood at 57% and the “% activity to the base corrected by molecular weight” value (“% activity to the base corrected” below) is 116%.

As for `CCOc1cc(C(Nc2ncc(Cc3cc(OC)c(OC)c(OC)c3)c(N)n2)S(=O)(=O)O)ccc1O` (centres unmarked) [Example 24e, N2 (3-Ethoxy 4-Hydroxy) Phenyl Methane Sulfonic Acid of 5-(3,4,5-Trimethoxy Benzyl) 2,4-Diamino Pyrimidine], in the test on COLI [2], the “% activity with respect to the base” value came to 21.3% and the “% activity with respect to the base corrected by molecular weight” value is 46%. Further, in the test on COLI [1], the “% activity with respect to the base” value stood at 40.0% and the “% activity to the base corrected” value is 86%. Besides, in the test with BACIL PUMILUS, the “% activity with respect to the base” value was 40.0% and the “% activity with respect to the base corrected by molecular weight” value turned out to be 86%.

With `CCOc1cc(C(Nc2ncc(Cc3cc(OC)c(OC)c(OC)c3)c(N)n2)S(=O)(=O)O)ccc1O` (centres unmarked) [Example 24d, N2 (3-Ethoxy 4-Hydroxy) Phenyl Methane Sulfonic Acid of 5-(3,4,5-Trimethoxy Benzyl) 2,4-Diamino Pyrimidine], the figures for the “% activity with respect to the base” value in the test with COLI [2], in the test with COLI [1] and with BACIL PUMILUS were 13.1%, 23.2% and 37.0%, respectively. The “% activity with respect to the base corrected by molecular weight” value was determined as 26% in the test with COLI [2] and 74% with BACIL PUMILUS. Further, in the test on COLI [1], the “% activity to the base corrected” value was 46%.

Regarding `CCOc1cc(C(Nc2ncc(Cc3cc(OC)c(OC)c(OC)c3)c(N)n2)S(=O)(=O)O)ccc1O` (centres unmarked) [Example 24b, N2 (3-Ethoxy 4-Hydroxy) Phenyl Methane Sulfonic Acid of 5-(3,4,5-Trimethoxy Benzyl) 2,4-Diamino Pyrimidine], in the test with COLI [2], the “% activity with respect to the base” value is reported as 48.7% and the “% activity with respect to the base corrected by molecular weight” value was determined as 93%. Also, in the test on COLI [1], the “% activity with respect to the base” value is 43.9% and the “% activity to the base corrected” value came to 84%. Further, in the test with BACIL PUMILUS, the “% activity with respect to the base” value is listed as 42.2% and the “% activity with respect to the base corrected by molecular weight” value worked out at 79%.

In the case of `COc1cc(Cc2cnc(NC(c3cccc(Cl)c3)S(=O)(=O)O)nc2N)cc(OC)c1OC` (centres unmarked) [Example 10, N2 (3-Chloro Phenyl) Methane Sulfonic Acid of 2,4-Diamino 5-(3,4,5-Trimethoxy Benzyl) Pyrimidine], in the test on COLI [2], the “% activity with respect to the base” value is listed as 14.1% and the “% activity with respect to the base corrected by molecular weight” value was found to be 25%. Besides, in the test with COLI [1], the “% activity with respect to the base” value came to 11.6% and the “% activity to the base corrected” value is reported as 20%. In addition, in the test on BACIL PUMILUS, the “% activity with respect to the base” value was found to be 10.4% and the “% activity with respect to the base corrected by molecular weight” value is reported as 18%.

As for `COc1cc(Cc2cnc(NC(c3ccc(Cl)cc3)S(=O)(=O)O)nc2N)cc(OC)c1OC` (centres unmarked) [Example 11, N2 (4-Chloro Phenyl) Methane Sulfonic Acid of 2,4-Diamino 5-(3,4,5-Trimethoxy Benzyl) Pyrimidine], in the test with COLI [2], the “% activity with respect to the base” value turned out to be 25.6% and the “% activity with respect to the base corrected by molecular weight” value is 45%. Moreover, in the test on COLI [1], the “% activity with respect to the base” value was 17.6% and the “% activity to the base corrected” value was determined as 31%. In the test on BACIL PUMILUS, the “% activity with respect to the base” value came to 23% and the “% activity with respect to the base corrected by molecular weight” value is given as 41%.

In the case of `COc1cc(Cc2cnc(NC(c3cc(OC)c(OC)c(OC)c3)S(=O)(=O)O)nc2N)cc(OC)c1OC` (centres unmarked) [Example 17, N2 (3,4,5-Trimethoxy Phenyl) Methane Sulfonic Acid 2,4-Diamino 5-(3,4,5-Trimethoxy Benzyl) Pyrimidine], in the test with COLI [2], the “% activity with respect to the base” value came out at 34.8% and the “% activity with respect to the base corrected by molecular weight” value is recorded as 68%. Besides, in the test on COLI [1], the “% activity with respect to the base” value amounted to 24.3% and the “% activity to the base corrected” value was determined as 48%. Besides, in the test with BACIL PUMILUS, the “% activity with respect to the base” value is 42.7% and the “% activity with respect to the base corrected by molecular weight” value is 84%.

On to `CCC(CC)C(Nc1ncc(Cc2cc(OC)c(OC)c(OC)c2)c(N)n1)S(=O)(=O)O` (centres unmarked) [Example 7, N2 (2-Ethyl) Butane Sulfonic Acid of 2,4-Diamino 5-(3,4,5-Trimethoxy Benzyl) Pyrimidine], for which, in the test with COLI [2], the “% activity with respect to the base” value was 14% and the “% activity with respect to the base corrected by molecular weight” value is reported as 23%. In the test with COLI [1], the “% activity with respect to the base” value is 15.5% and the “% activity to the base corrected” value amounted to 25%. Besides, in the test on BACIL PUMILUS, the “% activity with respect to the base” value came to 14% and the “% activity with respect to the base corrected by molecular weight” value is 23%.

With `COc1cc(Cc2cnc(NC(c3ccccc3O)S(=O)(=O)O)nc2N)cc(OC)c1OC` (centres unmarked) [Example 25f, N2 (2-HYDROXY) PHENYL METHANE SULFONIC ACID OF 5-(3,4,5-TRIMETHOXY BENZYL) 2,4-DIAMINO PYRIMIDINE], in the test on COLI [2], the “% activity with respect to the base” value turned out to be 38.3% and the “% activity with respect to the base corrected by molecular weight” value stood at 84%. In addition, in the test on COLI [1], the “% activity with respect to the base” value is recorded as 55.4% and the “% activity to the base corrected” value amounted to 120%. For the same molecule, in the test on BACIL PUMILUS, the “% activity with respect to the base” value is given as 73.1% and the “% activity with respect to the base corrected by molecular weight” value came out at 159%.

On to `COc1cc(Cc2cnc(NC(c3cccc([N+](=O)[O-])c3)S(=O)(=O)O)nc2N)cc(OC)c1OC` (centres unmarked) [Example 13, N2 (3-Nitro Phenyl) Methane Sulfonic Acid of 2,4-Diamino 5-(3,4,5-Trimethoxy Benzyl) Pyrimidine], for which, in the test with COLI [2], the “% activity with respect to the base” value stood at 32.5% and the “% activity with respect to the base corrected by molecular weight” value was 59%. In addition, in the test with COLI [1], the “% activity with respect to the base” value is given as 17.2% and the “% activity to the base corrected” value is recorded as 31%. For the same molecule, in the test with BACIL PUMILUS, the “% activity with respect to the base” value was 23.2% and the “% activity with respect to the base corrected by molecular weight” value is 42%.

Take `COc1cc(Cc2cnc(NC(c3ccccc3)S(=O)(=O)O)nc2N)cc(OC)c1OC` (centres unmarked) [Example 8, N2 Phenyl Methane Sulfonic Acid of 2,4-Diamino 5-(3,4,5-Trimethoxy Benzyl) Pyrimidine]: in the test on COLI [2], the “% activity with respect to the base” value came out at 13.3% and the “% activity with respect to the base corrected by molecular weight” value is given as 21%. In addition, in the test with COLI [1], the “% activity with respect to the base” value is recorded as 10.2% and the “% activity to the base corrected” value worked out at 16.4%. For the same molecule, in the test with BACIL PUMILUS, the “% activity with respect to the base” value came to 18.4% and the “% activity with respect to the base corrected by molecular weight” value is recorded as 26%.

With `COc1cc(Cc2cnc(NC(C)S(=O)(=O)O)nc2N)cc(OC)c1OC` (centres unmarked) [Example 2, N2 Ethane Sulfonic acid of 2,4-Diamino 5-(3,4,5-Trimethoxy Benzyl) Pyrimidine], in the test with COLI [2], the “% activity with respect to the base” value is 4% and the “% activity with respect to the base corrected by molecular weight” value amounted to 5.8%. For the same molecule, in the test on COLI [1], the “% activity with respect to the base” value turned out to be 4.3% and the “% activity to the base corrected” value is 6.2%. In the test on BACIL PUMILUS, the “% activity with respect to the base” value turned out to be 2.8% and the “% activity with respect to the base corrected by molecular weight” value worked out at 4%.

Regarding `COc1cc(Cc2cnc(NC(C(C)C)S(=O)(=O)O)nc2N)cc(OC)c1OC` (centres unmarked) [Example 4, N2 (2-Methyl) Propane Sulfonic Acid of 2,4-Diamino 5-(3,4,5-Trimethoxy Benzyl) Pyrimidine], the “% activity with respect to the base” value was 12.9% with COLI [2], 14.1% with COLI [1] and 11.8% with BACIL PUMILUS. Also, the “% activity with respect to the base corrected by molecular weight” value with COLI [2] turned out to be 20%; in the test on BACIL PUMILUS, 18%. Further, in the test with COLI [1], the “% activity to the base corrected” value is 22%.

`COc1cc(Cc2cnc(NC(c3ccccc3O)S(=O)(=O)O)nc2N)cc(OC)c1OC` (centres unmarked) [Example 25d, N2 (2-HYDROXY) PHENYL METHANE SULFONIC ACID OF 5-(3,4,5-TRIMETHOXY BENZYL) 2,4-DIAMINO PYRIMIDINE]: in the test on COLI [2], the “% activity with respect to the base” value is on record as 28.3% and the “% activity with respect to the base corrected by molecular weight” value was 53%. In the test on COLI [1], the “% activity with respect to the base” value is on record as 45.4% and the “% activity to the base corrected” value was 85%. In addition, in the test on BACIL PUMILUS, the “% activity with respect to the base” value is listed as 55.5% and the “% activity with respect to the base corrected by molecular weight” value amounted to 104%.

For the molecule `COc1cc(Cc2cnc(NC(c3ccccc3O)S(=O)(=O)O)nc2N)cc(OC)c1OC` (centres unmarked) [Example 25e, N2 (2-HYDROXY) PHENYL METHANE SULFONIC ACID OF 5-(3,4,5-TRIMETHOXY BENZYL) 2,4-DIAMINO PYRIMIDINE], in the test on COLI [2], the “% activity with respect to the base” value is listed as 36.6% and the “% activity with respect to the base corrected by molecular weight” value was determined as 74%. Also, in the test on COLI [1], the “% activity with respect to the base” value is reported as 45.8% and the “% activity to the base corrected” value stood at 93%. In the test with BACIL PUMILUS, the “% activity with respect to the base” value worked out at 75.8% and the “% activity with respect to the base corrected by molecular weight” value was determined as 154%.

For `COc1cccc(C(Nc2ncc(Cc3cc(OC)c(OC)c(OC)c3)c(N)n2)S(=O)(=O)O)c1` (centres unmarked) [Example 16, N2 (3-Methoxy Phenyl) Methane Sulfonic Acid 2,4-Diamino 5-(3,4,5-Trimethoxy Benzyl) Pyrimidine], in the test on COLI [2], the “% activity with respect to the base” value was determined as 13.2% and the “% activity with respect to the base corrected by molecular weight” value was 23%. Moreover, in the test with COLI [1], the “% activity with respect to the base” value is 16.8% and the “% activity to the base corrected” value stood at 29%. Besides, in the test on BACIL PUMILUS, the “% activity with respect to the base” value came to 10.7% and the “% activity with respect to the base corrected by molecular weight” value is recorded as 19%.

Turning to `CCCC(Nc1ncc(Cc2cc(OC)c(OC)c(OC)c2)c(N)n1)S(=O)(=O)O` (centres unmarked) [Example 3, N2 Butane Sulfonic Acid of 2,4-Diamino 5-(3,4,5-Trimethoxy Benzyl) Pyrimidine], in the test with COLI [2], the “% activity with respect to the base” value is given as 18.35% and the “% activity with respect to the base corrected by molecular weight” value was 28%. Moreover, in the test on COLI [1], the “% activity with respect to the base” value is 4.55% and the “% activity to the base corrected” value is on record as 10.8%. In addition, in the test with BACIL PUMILUS, the “% activity with respect to the base” value came out at 2.9% and the “% activity with respect to the base corrected by molecular weight” value is on record as 6.8%.
